Laboratory results from patent US20250082620A1, “NOVEL CINNAMAMIDE DERIVATIVES AND USE THEREOF” (KOREA RESEARCH INSTITUTE OF BIOSCIENCE AND BIOTECHNOLOGY, priority 2022, published 2025).

Columns and labels:
STAT3 activity (p-STAT3) [1] = biological target: T1, STAT3 activity (p-STAT3) (Homo sapiens, UniProt P40763); test: STAT3 phosphorylation inhibitory effect in cancer cell line by Western blot (Table 2); type: cell-based; design: endogenous in cells; host or cells: unnamed 'rectal cancer cell' line; details: rectal cancer cell line, read-out: Concentration at which STAT3 activity (p-STAT3) is inhibited by 50% (μM; IC50)
T1 sequence (P40763 whole entry): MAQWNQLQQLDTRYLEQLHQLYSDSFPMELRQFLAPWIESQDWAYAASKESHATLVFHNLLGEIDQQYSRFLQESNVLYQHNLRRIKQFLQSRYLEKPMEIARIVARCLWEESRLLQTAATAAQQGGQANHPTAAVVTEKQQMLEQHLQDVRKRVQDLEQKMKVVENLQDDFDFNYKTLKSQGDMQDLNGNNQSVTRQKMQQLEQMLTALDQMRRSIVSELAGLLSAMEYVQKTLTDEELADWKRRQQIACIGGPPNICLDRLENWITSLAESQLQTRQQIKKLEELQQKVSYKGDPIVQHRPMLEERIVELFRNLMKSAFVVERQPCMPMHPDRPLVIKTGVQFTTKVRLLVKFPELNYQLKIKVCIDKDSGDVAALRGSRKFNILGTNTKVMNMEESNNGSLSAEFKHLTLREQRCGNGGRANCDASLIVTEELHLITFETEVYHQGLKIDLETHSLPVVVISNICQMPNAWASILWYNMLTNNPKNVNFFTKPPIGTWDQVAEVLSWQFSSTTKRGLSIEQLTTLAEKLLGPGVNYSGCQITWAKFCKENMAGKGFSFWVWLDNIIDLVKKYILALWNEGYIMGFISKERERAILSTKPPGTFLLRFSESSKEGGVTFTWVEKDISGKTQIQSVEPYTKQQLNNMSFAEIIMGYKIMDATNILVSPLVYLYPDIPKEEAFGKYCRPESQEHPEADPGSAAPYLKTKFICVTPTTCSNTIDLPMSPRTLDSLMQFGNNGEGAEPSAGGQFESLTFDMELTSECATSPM
Experimental: (§1) Prostate cancer cell line DU-145, breast cancer cell MDA-MB 468, lung cancer cell HCC827, natural killer cells (NKL), or bone marrow-derived macrophages (BMDM) (4×10^5 cells), which are immune cells, were plated in a 6-well plate. After 24 hours, the cells were each treated with 0.1% DMSO, HCA, EA, and the compounds prepared in Synthesis Examples 1 to 8 according to concentration and time, washed with PBS, and recovered using RIPA buffer. […] of protein quantified using the Bio-Rad protein assay kit (Bio-Rad, Hercules, California, USA) was subjected to 8% SDS-PAGE electrophoresis and transferred to a PVDF membrane (EMD Millipore, Billerica, MA, USA). After blocking the membrane with TBST containing 5% skim milk, the experiment was performed using primary and secondary antibodies. The primary antibodies used were p-STAT3 (Y705) (Cell Signaling), STAT3 (Cell Signaling), Cyclin D1 (Santa Cruz), Cyclin A (Santa Cruz), Mcl-1 (Santa Cruz), Survivin (Cell Signaling), Bcl-XL (Santa Cruz), and PARP (Cell Signaling) GAPDH (Santa Cruz), and the secondary antibodies used were HRP-conjugated goat anti-rabbit and anti-mouse IgG (Jackson ImmunoResearch Laboratories, West Grove, PA, USA). The antibodies used were each washed three times with TBST, and bands were detected using Luminata Forte Western HRP substrate (EMD Millipore) by LAS 4000 mini (GE Healthcare Life Sciences). Subsequently, correction using GAPDH was performed using the MultiGauge program (Fuji Photo Film, Tokyo, Japan).
The STAT3 phosphorylation inhibitory effect of the cinnamamide derivatives of Chemical Formula 1 prepared in Synthesis Examples 1 to 8 in cancer cell lines was confirmed by Western blot.
Specifically, the STAT3 phosphorylation inhibitory effect in rectal cancer cell was confirmed line as an example of representative carcinoma.

[2] = biological target: T2, STAT3 phosphorylation (p-STAT3) (Homo sapiens, UniProt P40763); test: STAT3 phosphorylation inhibition in natural killer cells (NKL) by Western blot; type: cell-based; details: 2, 5, 10 μM
T2 construct: endogenous in cells; host or cells: NKL natural killer cells
T2 sequence (P40763 whole entry): as above
Experimental: as §1, with “The primary antibodies used were p-STAT3 (Y705) (Cell Signaling), STAT3 (Cell Signaling), Cyclin D1 (Santa Cruz), Cyclin A (Santa Cruz), Mcl-1 (Santa Cruz), Survivin (Cell Signaling), Bcl-XL (Santa Cruz), and PARP (Cell Signaling) GAPDH (Santa Cruz), and the secondary antibodies used were HRP-conjugated goat anti-rabbit and anti-mouse IgG (Jackson ImmunoResearch Laboratories, West Grove, PA, USA).” left out, “Subsequently, correction using GAPDH was performed using the MultiGauge program (Fuji Photo Film, Tokyo, Japan).” left out
Specifically, NKL (4×10^5 cells) were plated in 6-well plate and each treated with 2 μM, 5 μM, and 10 μM of CG155 or CG165, and then the degree of STAT3 phosphorylation was measured by Western blot using p-STAT3 antibody.

[3] = biological target: T3, STAT3 phosphorylation (p-STAT3) (Mus musculus, UniProt P42227); test: STAT3 phosphorylation inhibition in IL-10-treated bone marrow-derived macrophages (BMDM) by Western blot; type: cell-based, C57BL/6 mice; details: for inhibition of phosphorylation of STAT3, dependence on concentration: 1 hour pre-treatment, then IL-10 for 15 minutes
T3 construct: the bone marrow-derived macrophages isolated from mouse bone marrow; endogenous in cells; host or cells: primary bone marrow-derived macrophages from C57BL/6 mice
T3 sequence (P42227 whole entry): as the sequence (P40763 whole entry) above, with E760D counted along it
Experimental: as §1, with “Japan). […]” for “Japan).”
Subsequently, in order to confirm the function of CG155 and CG165 in inhibiting STAT3 activation in the bone marrow-derived macrophages isolated from mouse bone marrow, the bone marrow-derived macrophages were each pre-treated with DMSO, CG155 (5 μM, 10 μM), and CG165 (2 μM, 5 μM) for 1 hour. After removing the culture medium, the bone marrow-derived macrophages were treated with interleukin-10 (IL-10), a type of cytokine that can activate STAT3, for 15 minutes, and the function of CG155 and CG165 on inhibiting STAT3 activation was measured by Western blot using p-STAT3 antibody.

[4] = tested on: human-derived prostate cancer (DU-145); test: Nude mouse subcutaneous transplant model of human-derived prostate cancer (DU-145); type: in vivo, nude mice
Experimental: It was attempted to evaluate the anticancer efficacy of the compound CG165 of the present disclosure by oral administration using nude mouse subcutaneous transplant models of human-derived prostate cancer (DU-145).
Specifically. Athymic-NCr NCr-nu specific pathogen-free (SPF) 5-week-old nude mice supplied by KOATECH (Pyeongtaek-si, Gyeonggi-do) were used as animals. The cancer cell concentration was adjusted to 3×10^7 cells/mL, and 0.3 mL of cell culture per mouse was injected subcutaneously into the axillary area between the right shoulder and chest wall. Subsequently, CG165 was prepared at the corresponding concentrations by adding DMAC 10%+Tween80 10%+20% HPBCD 80% step by step, and was administered orally at 0.2 mL per 20 g of mouse, which was repeated a total of 23 times for 30 days. At 30 days after starting drug administration, the DU-145 tumor was excised and its weight was measured.
Next, it was attempted to evaluate the anticancer efficacy of the compound CG126 of the present disclosure by intraperitoneal administration using nude mouse subcutaneous transplant models of human-derived prostate cancer (DU-145) in the same manner as above.

[5] = Single oral dose toxicity in mice; type: in vivo; details: male mice; 100 mg/kg, 200 mg/kg, and 300 mg/kg
Experimental: In order to obtain information on the acute toxicity of the compound CG165 of the present disclosure whose anticancer effect has been verified in animal models, the test substance was administered orally once at 100 mg/kg, 200 mg/kg, and 300 mg/kg to male mice to determine mortality, general symptoms, weight change, and post-mortem over 7 days.
Specifically, 20 Athymic-NCr NCr-nu specific pathogen-free (SPF) 5-week-old nude mice supplied by KOATECH (Pyeongtaek-si, Gyeonggi-do) were used as animals. Subsequently, CG165 was prepared as administration solution at different concentrations by adding DMAC 10%+Tween80 10%+20% HPBCD 80% step by step, and was administered orally.
General symptoms and dead animals were observed every hour from 1 to 6 hours after the final administration on the day of administration, and once daily from the day after administration until the 7th day for observation of changes in general symptoms, toxic symptoms, and the presence of dead animals.
In order to observe changes in body weight, the body weight of all animals used in the test was measured before administration and on days 0, 1, 2, 4, and 7 after administration.
On the 7th day after administration, all animals were anesthetized using CO2 gas, laparotomized, and killed by exsanguination by cutting the abdominal artery and vein, and all internal organs were visually observed.

[6] = tested on: STAT3 target proteins (cyclin A, Mcl-1, survivin), caspase 3, PARP; test: Expression of STAT3 target proteins and apoptotic effect in cancer cell lines by Western blot; type: cell-based
Experimental: as §1
In Example 1, it was confirmed that STAT3 activity (p-STAT3) was inhibited in cancer cells when treated with the compound CG165 of the present disclosure. The effect of inhibiting the expression of STAT3 target proteins and the apoptotic effect due to the inhibition of STAT3 activity were confirmed using Western blot.

[7] = tested on: breast cancer cell line MDA-MB-468; test: Cell proliferation assay (WST-1) in breast cancer cell line MDA-MB-468; type: cell-based; details: 24 or 48 hours
Experimental: (§2) In Example 1, it was confirmed that STAT3 activity (p-STAT3) was inhibited by more than 50% in cancer cells when treated with the compound CG165 of the present disclosure. In order to confirm the effect of inhibiting STAT3 activity on inhibition of cancer cell growth, cell proliferation assay was performed using the breast cell line, a representative carcinoma.
Specifically, the breast cancer cell line MDA-MB-468 was treated with CG-165 according to concentrations for 24 or 48 hours, and then the degree of cell viability was measured using the WST-1 assay (Dojindo Laboratories, Kumamoto, Japan).

[8] = tested on: prostate cancer cell line DU-145; test: Cell proliferation assay (WST-1) in prostate cancer cell line DU-145; type: cell-based, human; details: 24 or 48 hours
Experimental: as §2, with “inhibited” for “inhibited by more than 50%”, “cinnamamide derivatives” for “compound CG165”, “Chemical Formula 1 prepared in Synthesis Examples 1 to 8.” for “the present disclosure.”, “prostate cancer” for “breast”
Specifically, the prostate cancer cell line DU-145 (0.8×10^4 cells) was plated in a 96-well plate. After 24 hours, DMSO (control) and CG-165 were treated for 24 or 48 hours according to concentration, and then treated with 10 ul of WST-1 reagent (Dojindo Laboratories, Kumamoto, Japan). After treatment for about 1 hour, cell viability was calculated using the absorbance measured at 450 nm with a microplate reader (Multiskan GO system, Thermo Fisher Scientific, Rockford, IL, USA).

STAT3 activity (p-STAT3) [9] = biological target: T1, STAT3 activity (p-STAT3); test: STAT3 phosphorylation inhibition in breast cancer cell line MDA-MB-468 by Western blot; type: cell-based; design: endogenous in cells
Experimental: as §1, with “Subsequently, correction using GAPDH was performed using the MultiGauge program (Fuji Photo Film, Tokyo, Japan).” left out

STAT3 activity (p-STAT3) [10] = biological target: T1, STAT3 activity (p-STAT3); test: STAT3 phosphorylation inhibition in lung cancer cell line HCC827 by Western blot; type: cell-based; design: endogenous in cells
Experimental: as §1, with “Subsequently, correction using GAPDH was performed using the MultiGauge program (Fuji Photo Film, Tokyo, Japan).” left out

[11] = tested on: human foreskin fibroblasts HFF; test: Cell viability (WST-1) in normal cells HFF; type: cell-based; details: 10 μM, 48 hours
[12] = tested on: MCF10A, human breast epithelial cells; test: Cell viability (WST-1) in normal cells MCF10A; type: cell-based; details: 10 μM, 48 hours
STAT3 activity (p-STAT3) [13] = biological target: T1, STAT3 activity (p-STAT3); test: STAT3 phosphorylation inhibition in prostate cancer cell line DU-145 by Western blot; type: cell-based; design: endogenous in cells; host or cells: DU-145, MDA-MB-468, HCC827
Experimental: as §1
Next, the STAT3 phosphorylation inhibitory effect of the compound CG165 of the present disclosure in cancer cell lines was confirmed by Western blot.

## C=C(C)C(=O)NC(=O)/C=C/c1ccccc1O [CG133]
STAT3 activity (p-STAT3) [1]
  IC50: 6.2 µM

## C#CCOc1ccccc1/C=C/C(=O)NC(=O)C(=C)C [CG164]
STAT3 activity (p-STAT3) [1]
  IC50: 3.5 µM

## C=C(C)C(=O)NC(=O)/C=C/c1ccccc1C [CG127]
STAT3 activity (p-STAT3) [1]
  IC50: 8.1 µM

## C=C(C)C(=O)NC(=O)/C=C/c1ccccc1OCc1ccncc1 [CG155]
STAT3 activity (p-STAT3) [1]
  IC50: 5 µM
[2]
  inhibition of phosphorylation of STAT3, dependence on concentration: concentration-dependent manner
[3]
  inhibition of phosphorylation of STAT3, dependence on concentration: concentration-dependent manner

## C=C(C)C(=O)NC(=O)/C=C/c1ccccc1OCc1ccccc1 [CG187]
STAT3 activity (p-STAT3) [1]
  IC50: 3.5 µM

## C=C(C)C(=O)NC(=O)/C=C/c1ccccc1OC [CG126]
[4]; 30 mg/kg intraperitoneal, day 25, p<0.06
  decrease in tumor weight compared to the vehicle: 54.2%
STAT3 activity (p-STAT3) [1]
  IC50: 3.7 µM

## C=C(C)C(=O)NC(=O)/C=C/c1ccccc1Cl [CG168]
STAT3 activity (p-STAT3) [1]
  IC50: 2 µM

## C#CCOc1ccccc1/C=C/C(=O)N(C)C(=O)C(=C)C [CG165]
[5]
  toxicological changes upon single oral administration: did not cause toxicological changes
[6]
  caspase 3 activation: activated
  decomposition of PARP protein (cell death biomarker): promoted
  expression of cyclin A, Mcl-1, and survivin (target proteins of STAT3): significantly inhibited
[4]; 30 mg/kg oral
  change in body weight compared to the vehicle: no decrease in body weight was observed
[4]; 30 mg/kg oral, day 30, p<0.05
  decrease in tumor weight compared to the vehicle: 43.3%
[4]; 60 mg/kg oral
  change in body weight compared to the vehicle: no decrease in body weight was observed
[4]; 60 mg/kg oral, day 30, p<0.05
  decrease in tumor weight compared to the vehicle: 64.3%
  tumor growth inhibition (tumor size) compared to the vehicle: 63.3%
[4]; P.O, 30 mg/kg, day 30, p<0.05
  tumor growth inhibition (tumor size) compared to the vehicle: 45.6%
STAT3 activity (p-STAT3) [1]
  IC50: 1.8 µM
[7]
  inhibition of growth of breast cancer cells (cell viability, WST-1): inhibited the growth of breast cancer cells in a concentration-dependent manner
[2]
  inhibition of phosphorylation of STAT3, dependence on concentration: concentration-dependent manner
[8]
  inhibition of growth of cancer cells (cell viability, WST-1): inhibited the growth of cancer cells in a concentration-dependent manner
STAT3 activity (p-STAT3) [9]
  inhibition of STAT3 activity (p-STAT3), dependence on concentration: concentration-dependent manner
STAT3 activity (p-STAT3) [9]; 5 μM
  inhibition at 5 µM: > 50%
STAT3 activity (p-STAT3) [10]
  inhibition of STAT3 activity (p-STAT3), dependence on concentration: concentration-dependent manner
STAT3 activity (p-STAT3) [10]; 5 μM
  inhibition at 5 µM: > 50%
[11]
  effect on the growth of normal cells (cell viability, WST-1): no significant effect
[12]
  effect on the growth of normal cells (cell viability, WST-1): no significant effect
[3]; 5 μM, IL-10 stimulated, read-out: inhibition of STAT3 activation
  inhibition at 5 µM: > 90%
[3]
  inhibition of phosphorylation of STAT3, dependence on concentration: concentration-dependent manner
STAT3 activity (p-STAT3) [13]
  inhibition of STAT3 activity (p-STAT3), dependence on concentration: concentration-dependent manner
  inhibition of STAT3 activity (p-STAT3), dependence on time: time-dependent manner
STAT3 activity (p-STAT3) [13]; 2 μM
  inhibition at 2 µM: > 50%
